Data on one compound can be found in patent publication US20230405057A1, “MEDICAL COMPOSITIONS AND THEIR USE IN TREATING INFLAMMATORY BOWEL DISEASE” (BIOMILLENIA SAS, priority 2019, published 2023).

“Also recorded” adds a separate entry of the source.

What all share (assay type): cell-based
Test [1] has as its system Malassezia restricta. The test can be described thus: Modified disc diffusion assay with living Acetobacter culture. As to conditions: 6 mm discs soaked with 15 ul exponentially growing Acetobacter culture or ketoconazole 1 mg/mL in DMSO; 5 days incubation. How it is done:
(§1) FIG. 1|Inhibition assays of M. restricts and M. globose by growth of Acetobacter fabarum. Discs were soaked with ketoconazole (1 mg/ml in DMSO) or exponentially growing Acetobacter fabarum culture and placed on agar plates containing a soft layer inoculated with a single culture of the different Malassezia species to be tested. In the upper panel, inhibition of Malassezia globosa is shown; in the bottom panel, Malassezia restricta is shown.
(§2) In order to identify strains whose growth inhibits Malassezia, inhibition assays were performed using a modified disc diffusion method. This method is similar to the classical disk diffusion method that consists in depositing discs imbibed with potential inhibitory substances on Petri plates containing a strain of interest, except that the disks were imbibed with a living culture of an Acetobacter strain. After optimal growth of the strain of interest, growth inhibition can be observed around discs on which the growth of inhibitory bacteria has occurred. Ketoconazole (at 1 mg/mL in DMSO) was used as a positive control for Malassezia growth inhibition. The effect of growth of Acetobacter was tested on Malassezia restricta and Malassezia globosa. All Malassezia strains were streaked from −80° C. stock on Modified Leeming and Notman (MLN) agar plates and incubated 10 days at 30° C. […]

Test [2] has as its system Malassezia globosa. Described as above. As to conditions: 6 mm discs soaked with 15 ul exponentially growing Acetobacter culture or ketoconazole 1 mg/mL in DMSO; 5 days incubation. Here is the method: as §1, §2
The subject of test [3] is Malassezia sympodialis. The test can be described thus: Disc diffusion growth inhibition assay (supernatants). The note with it: 6 mm discs soaked with 15 ul supernatant or ketoconazole 1 mg/ml in DMSO; soft agar lawn; 5 days incubation. Here is the method: (§3) FIG. 1|Inhibition assays of the fungicide ketoconazole as positive control for inhibition and Kazachstania unispora supernatant on M. sympodialis, M. furfur, M. restricts and M. globosa. Inhibition assays were performed using the disc diffusion method. Discs were soaked with ketoconazole (1 mg/ml) or K. unispora supernatant and placed on agar plates containing a soft layer inoculated with a single culture of the different Malassezia species to be tested.
(§4) In order to identify strains inhibiting Malassezia growth, inhibition assays were performed using the disc diffusion method. This method consists in disposing discs imbibed with potential inhibitory substances on Petri plates containing a strain of interest. After optimal growth of the strain of interest, growth inhibition can be observed around discs soaked with substances having an inhibitory effect. Potential inhibitory substances tested in this experiment are supernatants obtained after individually culturing a collection of fungal and bacterial strains. After an incubation of 10 days in their optimal broth, each culture was centrifuged and the supernatant was filtered and further stored at −20° C. Ketoconazole, a fungicide, was used as a positive control for Malassezia growth inhibition. It was diluted in dimethyl sulfoxide at 1 mg/ml. The collection of supernatants was tested on the following species from the genus Malassezia: Malassezia restricta, Malassezia globosa, Malassezia furfur and Malassezia sympodialis. All strains were streaked from −80° C. stock on Modified Leeming and Notman (MLN) agar plates and incubated 10 days at 30° C. A 5 ml liquid culture of each species was made in MLN broth and incubated at 30° C. for 2 days for M. furfur and M. sympodialis and 5 days for M. restricta and M. globosa. To allow a lawn growth of the different Malassezia strains tested, Petri plates were prepared as follows: a bottom layer of 50 ml Modified Sabouraud Dextrose (MSD) agar was poured in Petri plates. The soft agar, constituting the top layer, was a mix of 12.5 ml MSD agar, 10.5 ml MLN broth and 2 ml of liquid culture. Plates were allowed to dry for one hour, then, 6 mm-diameter Whatman™ discs were soaked with 15 ul of each thawed supernatants and ketoconazole and placed on the soft agar plate containing the solidified Malassezia monoculture layer. After an incubation of 5 days, inhibition area could be easily observed around discs. As expected, ketoconazole inhibited all 4 Malassezia species tested in this experiment. […] The strain from which the inhibitory supernatant has been produced was further sequenced using the Sanger technology. The internal transcribed spacer (ITS) of this strain was taxonomically assigned to the yeast Kazachstania unispora (BLASTn, 99% identity, 99% query cover, e-value 0.00).

In test [4] the test system is Malassezia restricta. Described as above. As to conditions: 6 mm discs soaked with 15 ul supernatant or ketoconazole 1 mg/ml in DMSO; soft agar lawn; 5 days incubation. How it is done:
as §3, §4

The test system of test [5] is Malassezia globosa. The description is as above. The note with it: 6 mm discs soaked with 15 ul supernatant or ketoconazole 1 mg/ml in DMSO; soft agar lawn; 5 days incubation. Here is the method: as §3, §4
Test [6] relates to Malassezia furfur. The description is as above. As to conditions: 6 mm discs soaked with 15 ul supernatant or ketoconazole 1 mg/ml in DMSO; soft agar lawn; 5 days incubation. How it is done:
as §3, §4

Consider `CC(=O)N1CCN(c2ccc(OCC3COC(Cn4ccnc4)(c4ccc(Cl)cc4Cl)O3)cc2)CC1` (stereo not drawn) [ketoconazole], for which the “growth inhibition (inhibition halo around disc) of Malassezia restricta” value in test [1] and in test [4] was “inhibits growth; also recorded: inhibited” throughout. The “growth inhibition (inhibition halo around disc) of Malassezia globosa” value in test [2] and in test [5] was “inhibits growth; also recorded: inhibited” each time. The “growth inhibition (inhibition halo around disc) of Malassezia sympodialis” value in test [3] was “inhibits growth; also recorded: inhibited”. Also, the “growth inhibition (inhibition halo around disc) of Malassezia furfur” value in test [6] is given as “inhibits growth; also recorded: inhibited”.
